Patent US20050250677A1, “Glycopeptide antibiotic derivatives” (priority 2002, published 2005)
Like-named read-outs stand apart in the source and are kept apart here.

Legend:
Format in all cases: cell-based
HIV-2(ROD) = assay: Inhibition of HIV-2 (ROD)-induced cytopathicity (giant cell formation) in CEM cells; conditions: read-out: EC50 HIV-2 (concentration required to inhibit HIV-induced giant cell formation by 50%); HIV-2, CEM cell cultures
Description: (§1) A variety of glycopeptide antibiotic derivatives of vancomycin, eremomycin and teicoplanin including their aglycon derivatives were evaluated for their inhibitory activity against HIV-1 (IIIB) and HIV-2(ROD) in CEM cell cultures.

human lymphocyte CEM = assay: Cytostatic activity assay, CEM cells; conditions: read-out: IC50 CEM (compound concentration required to inhibit tumor cell proliferation by 50%)
HIV-1 (IIIB) = assay: Inhibition of HIV-1 (IIIB)-induced cytopathicity (giant cell formation) in CEM cells
Description: as §1

murine leukemia L1210 = assay: Cytostatic activity assay, L1210 cells; conditions: read-out: IC50 L1210 (compound concentration required to inhibit tumor cell proliferation by 50%)
[1] = system: human lymphocyte Molt4/clone 8; assay: Cytostatic activity assay, Molt4/clone 8 cells; conditions: read-out: IC50 Molt4/C8 (compound concentration required to inhibit tumor cell proliferation by 50%)
[2] = read-out: EC50 HIV-1 (concentration required to inhibit HIV-induced giant cell formation by 50%), HIV-1, CEM cell cultures

## CCCCOc1ccc(CNC2C(Oc3c4cc5cc3Oc3ccc(cc3Cl)C(O)C3NC(=O)C(NC(=O)C5NC(=O)C5NC(=O)C(Cc6ccc(cc6)O4)NC(=O)C(N(C)Cc4ccc(OCCCC)cc4)c4ccc(O)c(c4)Oc4cc(O)c(Cl)c5c4)c4ccc(O)c(c4)-c4c(O)cc(O)cc4C(C(=O)NCCCN(C)C)NC3=O)OC(C(=O)NCCCN(C)C)C(O)C2O)cc1 (stereo not shown) [Compound 11]
HIV-2(ROD)
  EC50: > 10 µM
Human lymphocyte CEM
  IC50: 80 ± 6 µM
HIV-1 (IIIB); [2]
  EC50: 5 ± 0.7 µM
Murine leukemia L1210
  IC50: 20 ± 7.5 µM
[1]
  IC50: 18 ± 2.5 µM

## CCCCCCCCCC[N+](C)(C)CCCNCc1c(O)cc2c(c1O)-c1cc(ccc1O)C1NC(=O)C3NC(=O)C4NC(=O)C(Cc5ccc(c(Cl)c5)Oc5cc3cc(c5O)Oc3ccc(cc3Cl)C(O)C(NC1=O)C(=O)NC2C(=O)NCCCCCCN)NC(=O)C(N)c1ccc(O)c(c1)Oc1cc(O)cc4c1 (stereo not shown) [Compound 42]
HIV-2(ROD)
  EC50: 7 µM
Human lymphocyte CEM
  IC50: 66 ± 2 µM
HIV-1 (IIIB); [2]
  EC50: 1.8 ± 0.49 µM
Murine leukemia L1210
  IC50: 38 ± 1 µM
[1]
  IC50: 72 ± 6 µM

## CCCCCCCCCC[N+](C)(C)CCCNC(=O)C1NC(=O)C2NC(=O)C(NC(=O)C3NC(=O)C(CC(N)=O)NC(=O)C(NC(=O)C(CC(C)C)NC)C(O)c4ccc(c(Cl)c4)Oc4cc3cc(c4OC3OC(CO)C(O)C(O)C3OC3CC(C)(N)C(O)C(C)O3)Oc3ccc(cc3Cl)C2O)c2ccc(O)c(c2)-c2c(O)cc(O)cc21 (stereo not shown) [Compound 2]
HIV-2(ROD)
  EC50: > 50 µM
Human lymphocyte CEM
  IC50: 172 ± 15 µM
HIV-1 (IIIB); HIV-1 (IIIB), CEM cell cultures, read-out: EC50 against HIV-1
  EC50: 12 µM
HIV-1 (IIIB); [2]
  EC50: 5.5 ± 0.7 µM
Murine leukemia L1210
  IC50: 60 ± 8 µM
[1]
  IC50: 53 ± 1 µM

## CCCCCCCCCCNCc1c(O)cc2c(c1O)-c1cc(ccc1O)C1NC(=O)C3NC(=O)C4NC(=O)C(Cc5ccc(c(Cl)c5)Oc5cc3cc(c5O)Oc3ccc(cc3Cl)C(O)C(NC1=O)C(=O)NC2C(=O)NCCCN1CCCCC1C)NC(=O)C(N)c1ccc(O)c(c1)Oc1cc(O)cc4c1 (stereo not shown) [Compound 22]
HIV-2(ROD)
  EC50: 7 µM
Human lymphocyte CEM
  IC50: 211 ± 1 µM
HIV-1 (IIIB); [2]
  EC50: 1.3 ± 0.92 µM
Murine leukemia L1210
  IC50: 57 ± 15 µM
[1]
  IC50: 182 ± 31 µM

## C[C@@H](NC(=O)[C@@H](C)NC(=O)CCCCCNC(=O)C1NC(=O)C2NC(=O)C(NC(=O)C3NC(=O)C4NC(=O)C(Cc5ccc(c(Cl)c5)Oc5cc3cc(c5O)Oc3ccc(cc3Cl)C2O)NC(=O)C(NC(=O)OC(C)(C)C)c2ccc(O)c(c2)Oc2cc(O)cc4c2)c2ccc(O)c(c2)-c2c(O)cc(O)cc21)C(=O)O (stereo partly shown) [Compound 44]
HIV-2(ROD)
  EC50: 25 ± 7 µM
Human lymphocyte CEM
  IC50: > 500 µM
HIV-1 (IIIB); [2]
  EC50: 12.5 ± 3.5 µM
Murine leukemia L1210
  IC50: > 500 µM
[1]
  IC50: > 500 µM

## Teicoplanin [reference compound]
HIV-2(ROD)
  EC50: 100 µM
Human lymphocyte CEM
  IC50: > 500 µM
HIV-1 (IIIB); [2]
  EC50: 18 ± 3.5 µM
Murine leukemia L1210
  IC50: > 500 µM
[1]
  IC50: > 500 µM

## CCCCCCCCCC[N+]1(C)CCN(Cc2c(O)cc3c(c2O)-c2cc(ccc2O)C2NC(=O)C4NC(=O)C5NC(=O)C(Cc6ccc(c(Cl)c6)Oc6cc4cc(c6O)Oc4ccc(cc4Cl)C(O)C(NC2=O)C(=O)NC3C(=O)NCCCN(C)C)NC(=O)C(N)c2ccc(O)c(c2)Oc2cc(O)cc5c2)CC1 (stereo not shown) [Compound 38]
HIV-2(ROD)
  EC50: 10 µM
Human lymphocyte CEM
  IC50: > 100 µM
HIV-1 (IIIB); [2]
  EC50: 2.1 ± 0.92 µM
Murine leukemia L1210
  IC50: 51 ± 9 µM
[1]
  IC50: 91 ± 13 µM

## CNCc1c(O)cc2c(c1O)-c1cc(ccc1O)C1NC(=O)C3NC(=O)C4NC(=O)C(Cc5ccc(c(Cl)c5)Oc5cc3cc(c5O)Oc3ccc(cc3Cl)C(O)C(NC1=O)C(=O)NC2C(=O)NC)NC(=O)C(N)c1ccc(O)c(c1)Oc1cc(O)cc4c1 (stereo not shown) [Compound 45]
HIV-2(ROD)
  EC50: 17.5 ± 10.6 µM
Human lymphocyte CEM
  IC50: > 500 µM
HIV-1 (IIIB); [2]
  EC50: 15 ± 7.1 µM
Murine leukemia L1210
  IC50: > 500 µM
[1]
  IC50: > 500 µM

## CCCCc1ccc(CNCc2c(O)cc3c(c2O)-c2cc(ccc2O)C2NC(=O)C4NC(=O)C(CC(N)=O)NC(=O)C(NC(=O)C(CC(C)C)NC)C(O)c5ccc(c(Cl)c5)Oc5cc4cc(c5OC4OC(CO)C(O)C(O)C4OC4CC(C)(N)C(O)C(C)O4)Oc4ccc(cc4)C(OC4CC(C)(N)C(O)C(C)O4)C(NC2=O)C(=O)NC3C(=O)NC)cc1 (stereo not shown) [Compound 3]
HIV-2(ROD)
  EC50: 20 µM
Human lymphocyte CEM
  IC50: 95 ± 14.1 µM
HIV-1 (IIIB); [2]
  EC50: 5.1 ± 3.3 µM
Murine leukemia L1210
  IC50: 22 ± 0.3 µM
[1]
  IC50: 24 ± 18 µM
